Experimental findings from US10752588B2 (The Broad Institute, Inc., priority 2014, dated 2020) are described below.

The target in series [1] is D2 (Homo sapiens (Human), UniProt P14416). Kind of series: D2 radioligand binding assay.
Series [2] deals with T1, human D2R/β-arrestin (Homo sapiens (Human), UniProt P14416). The settings on record: read-out: cAMP Antagonist; CHO-K1 cell line expressing human D2R/β-arrestin; quinpirole used as agonist.
Series [3] concerns the target T1, human D2R/β-arrestin. Kind of series: cell-based. The settings on record: β-arrestin Antagonist, CHO-K1 cell line expressing human D2R/β-arrestin; quinpirole used as agonist.
Description: The detection reagents are then added, and the read-out is detected.
Cells were prepared for assays by growing cultures for up to 2 weeks (from about 6-20 passages). A vial of frozen cells was thawed in a water bath held at 37° C. The cells were then transferred into a 50 ml tube with 10 ml growth media. The vial was rinsed with growth media and the contents transferred to the 50 ml tube. The 50 ml tube was centrifuged at 1200 rpm for 5 minutes at room temperature. […] When the cells reached about 90% confluence (approximately 3 days between passages), the cells were passaged and used for either the agonist or antagonist assays as described below.
The cells were prepared for β-arrestin assays as described above. The assays were performed using a PathHunter® β-Arrestin Detecting Kit (DiscoveRX). The cells were grown on 225 mm dishes, then washed once with 1×PBS (Cellgro), followed by digestion with 2.5 ml 1× Detachment reagent (DRX 92-0009) for approximately 2 minutes.
Series [4] deals with T1, human D2R/β-arrestin. Kind of series: Gi/cAMP agonist assay (Lance Ultra cAMP, Forskolin). The settings on record: CHO-K1 cell line expressing human D2R/β-arrestin. The format is cell-based. A digest of the protocol: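 Cells were plated and incubated before compounds were pin-transferred and incubated for 10 min at 37 °C. Forskolin was then added to stimulate cAMP. cAMP was detected by Lance Ultra TR-FRET using Eu-cAMP tracer and ULight-anti-cAMP antibody.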

In series [5] the target is T1, human D2R/β-arrestin. Kind of series: β-Arrestin agonist assay (PathHunter). The format is cell-based. The conditions noted are these: CHO-K1 cell line expressing human D2R/β-arrestin. The essentials: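 After compound incubation, detection reagent (Buffer:Emerald II:Galactor-Star, 19:5:1) added and luminescence or fluorescence read.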
Series [6] can be described thus: Microsomal stability, mouse.
The target of series [7] is T1, human D2R/β-arrestin. Kind of series: cell-based. The settings on record: cAMP Antagonist, CHO-K1 cell line expressing human D2R/β-arrestin; quinpirole used as agonist.
A short description of series [8]: Plasma stability, mouse.
Series [9] can be described thus: Solubility in PBS. The format is physicochemical. The conditions noted are these: aqueous buffer.
The nature of series [10]: Plasma stability, human. The series is classed as in vitro ADME.
Series [11] is described as follows: Plasma stability, rat. The series is classed as in vitro ADME.
Series [12] can be described thus: Microsomal stability, human. The format is in vitro ADME.
A short description of series [13]: Microsomal stability, rat. The series is classed as in vitro ADME.

Converted amounts (≈) assume the structure as drawn. Read-outs that look alike come from different tables or passages of the source.

D2, sequence (P14416 whole entry): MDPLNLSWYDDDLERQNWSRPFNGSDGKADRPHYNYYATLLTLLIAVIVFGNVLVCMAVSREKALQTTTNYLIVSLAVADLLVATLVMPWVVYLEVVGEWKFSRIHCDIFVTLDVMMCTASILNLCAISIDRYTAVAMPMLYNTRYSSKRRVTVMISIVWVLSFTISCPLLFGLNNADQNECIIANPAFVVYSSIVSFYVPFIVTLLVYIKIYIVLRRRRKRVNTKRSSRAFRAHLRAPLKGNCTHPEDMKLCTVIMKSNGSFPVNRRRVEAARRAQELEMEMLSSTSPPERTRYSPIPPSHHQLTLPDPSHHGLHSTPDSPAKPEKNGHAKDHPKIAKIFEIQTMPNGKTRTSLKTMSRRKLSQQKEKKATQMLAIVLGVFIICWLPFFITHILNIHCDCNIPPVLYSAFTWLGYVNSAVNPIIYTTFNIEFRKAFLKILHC
T1 sequence (P14416 whole entry): as above

`CC1(C(=O)NC(c2ccc(F)cc2)c2ccccn2)CCN(CCOc2ccccc2)CC1` (single isomer, unassigned) [Compound 69b, N-((4-fluorophenyl)(pyridin-2-yl)methyl)-4-methyl-1-(2-phenoxyethyl)piperidine-4-carboxamide] displayed an inhibitory constant (Ki) in series [1] of 100 to 1000 nM. Besides, the IC50 in series [2] is over 30000 nM; in series [3], 100 to 1000 nM. In addition, the figures for the EC50 in [4] and in series [5] were under 100 nM and 100 to 1000 nM, respectively.
In the case of `CN(CC1CCN(CCOc2ccccc2F)CC1)C(c1ccc(Cl)cc1)c1ccccn1` (single isomer, unassigned) [Compound 72a, 1-(4-chlorophenyl)-N-((1-(2-(2-fluorophenoxy)ethyl)piperidin-4-yl)methyl)-N-methyl-1-(pyridin-2-yl)methanamine], the inhibition constant Ki in series [1] lay in the range of 100 to 1000 nM. In series [6], the “Microsomal Stability: % remaining after 60 minutes” value (shortened to “Microsomal Stability: % remaining”) is listed as “m0%”. In addition, the IC50 in [7] was over 30000 nM; in series [3], 100 to 1000 nM. Further, the “Plasma Stability: % remaining after 5 hours” value in series [8] is “m100%”. The amount in solution in series [9] (solubility) came to 1.4 µM (≈ 0.655 µg/mL). In addition, the EC50 was in the range of 100 to 1000 nM in series [4] and 1000 to 10000 nM in [5].
As for `COc1cccc(C(c2ccccn2)N(C)CC2CCN(CCOc3ccccc3F)CC2)c1` (single isomer, unassigned) [Compound 77a, N-((1-(2-(2-fluorophenoxy)ethyl)piperidin-4-yl)methyl)-1-(3-methoxyphenyl)-N-methyl-1-(pyridin-2-yl)methanamine], the Ki in series [1] was 100 to 1000 nM. Further, the “Microsomal Stability: % remaining” value in series [6] was “m1%”. Besides, the IC50 in series [7] and in [3] was 100 to 1000 nM each time. Also, the EC50 in [4] was 100 to 1000 nM; in series [5], over 30000 nM.
`O=C(NC(c1ccc2c(c1)OC(F)(F)O2)c1ccccn1)C1CCN(CCOc2ccccc2F)CC1` (single isomer, unassigned) [Compound 94a, N-((2,2-difluorobenzo[d][1,3]dioxol-5-yl)(pyridin-2-yl)methyl)-1-(2-(2-fluorophenoxy)ethyl)piperidine-4-carboxamide]: the Ki in [1] is 100 to 1000 nM. For the same compound, the “Microsomal Stability: % remaining” value in series [6] is listed as “m2%”. Moreover, the IC50 in [7] is under 100 nM; in [3] it was 100 to 1000 nM. In addition, the concentration for a half-maximal effect (EC50) in [4] and in series [5] was over 30000 nM each time.
On to `O=C(NC(c1ccc2c(c1)OC(F)(F)O2)c1ccccn1)C1CCN(CCOc2ccccc2F)CC1` (single isomer, unassigned) [Compound 94b, N-((2,2-difluorobenzo[d][1,3]dioxol-5-yl)(pyridin-2-yl)methyl)-1-(2-(2-fluorophenoxy)ethyl)piperidine-4-carboxamide], for which the Ki in [1] lay in the range of 100 to 1000 nM. For the same compound, the “Microsomal Stability: % remaining” value in series [6] is given as “m26%”. The IC50 in series [7] and in [3] was over 30000 nM in each case. The concentration for a half-maximal effect (EC50) was under 100 nM in series [4] and 100 to 1000 nM in series [5].
`Clc1ccc(C(NCC2CCN(CCOc3ccccc3)CC2)c2ccccn2)cc1` (single isomer, unassigned) [Compound 114a, 1-(4-chlorophenyl)-N-((1-(2-phenoxyethyl)piperidin-4-yl)methyl)-1-(pyridin-2-yl)methanamine]: the inhibition constant Ki in series [1] was in the range of 100 to 1000 nM. Moreover, the IC50 in series [7] and in series [3] was under 100 nM throughout. For the same compound, the values for the concentration for a half-maximal effect (EC50) in series [4] and in series [5] were 100 to 1000 nM and over 30000 nM, respectively.
For the compound `CC1(C(=O)NC(c2ccc(Cl)cc2)c2ccccn2)CCN(CCOc2ccccc2)CC1` (single isomer, unassigned) [Compound 144a, N-((4-chlorophenyl)(pyridin-2-yl)methyl)-4-methyl-1-(2-phenoxyethyl)piperidine-4-carboxamide], in [1], the inhibition constant (Ki) was under 100 nM. For the same compound, in [6], the “Microsomal Stability: % remaining” value is on record as “m1%”. Also, the values for the IC50 in series [7] and in series [3] were over 30000 nM and under 100 nM, respectively. Besides, the EC50 in [4] and in series [5] was under 100 nM in each case.
Regarding `O=C(NC(c1ccc(Cl)cc1)c1ccccn1)C1CCN(CCOc2ccc(C(F)(F)F)cc2)CC1` (stereo not shown) [Compound 8, N-((4-chlorophenyl)(pyridin-2-yl)methyl)-1-(2-(4-(trifluoromethyl)phenoxy)ethyl) piperidine-4-carboxamide], the “Microsomal Stability: % remaining” value in [6] was 53%; in series [12], 82%; in series [13], 100%. Further, the entries for the “Plasma Stability: % remaining after 5 hours” value in series [10], in series [11] and in [8] were 100%, 98.1% and 100%, respectively. Moreover, the IC50 was over 30000 nM in [7] and 10000 to 30000 nM in [3]. The solubility in [9] was 1.1 µM (≈ 0.57 µg/mL). Further, the EC50 in [4] was 10000 to 30000 nM; in series [5], over 30000 nM.
In [1], `CN(CC1CCN(CCOc2ccccc2F)CC1)C(c1ccc(Cl)cc1)c1ccccn1` (stereo not shown) [Compound 72, 1-(4-chlorophenyl)-N-((1-(2-(2-fluorophenoxy)ethyl)piperidin-4-yl)methyl)-N-methyl-1-(pyridin-2-yl)methanamine] had a Ki of under 100 nM. For the same compound, the IC50 is 1000 to 10000 nM in series [7] and under 100 nM in series [3]. The figures for the half-maximal effective concentration (EC50) in [4] and in series [5] were under 100 nM and over 30000 nM, respectively.
Regarding `O=C(NC(c1ccc(Cl)cc1)c1ccc(F)cn1)C1CCN(CCOc2ccccc2F)CC1` (stereo not shown) [Compound 92, N-((4-chlorophenyl)(5-fluoropyridin-2-yl)methyl)-1-(2-(2-fluorophenoxy)ethyl)piperidine-4-carboxamide], the inhibition constant Ki in series [1] lay within 100 to 1000 nM. Moreover, in series [6], the “Microsomal Stability: % remaining” value was “m22%”. The IC50 in series [7] and in series [3] was 100 to 1000 nM throughout. Further, the values for the EC50 in [4] and in [5] were 100 to 1000 nM and over 30000 nM, respectively.
The compound `O=C(NC(c1ccc2c(c1)OCO2)c1ccccn1)C1CCN(CCOc2ccccc2F)CC1` (stereo not shown) [Compound 95, N-(benzo[d][1,3]dioxol-5-yl(pyridin-2-yl)methyl)-1-(2-(2-fluorophenoxy)ethyl) piperidine-4-carboxamide] had a Ki in series [1] of 100 to 1000 nM. In series [6], the “Microsomal Stability: % remaining” value is given as “m33%”. For the same compound, the IC50 in series [7] and in series [3] was 100 to 1000 nM in each case. Moreover, the EC50 in series [4] is 100 to 1000 nM; in [5], over 30000 nM.
`Clc1ccc(C(c2ccccn2)N2CCC3(CCN(CCOc4ccccc4)CC3)C2)cc1` (stereo not shown) [Compound 105, 2-((4-chlorophenyl)(pyridin-2-yl)methyl)-8-(2-phenoxyethyl)-2,8-diazaspiro[4.5]decane] returned an inhibition constant (Ki) in [1] of under 100 nM. Besides, the “Microsomal Stability: % remaining” value in [6] is reported as “m18%”. The IC50 in series [7] was over 30000 nM; in series [3] it was 100 to 1000 nM. Moreover, the EC50 in series [4] lay in the range of 100 to 1000 nM; in series [5], 1000 to 10000 nM.
For the compound `FC(F)(F)CN(CC1CCN(CCOc2ccccc2)CC1)C(c1ccc(Cl)cc1)c1ccccn1` (stereo not shown) [Compound 125, N-((4-chlorophenyl)(pyridin-2-yl)methyl)-2,2,2-trifluoro-N-((1-(2-phenoxyethyl)piperidin-4-yl)methyl)ethanamine], in [1], the inhibition constant Ki is 100 to 1000 nM. Further, in series [6], the “Microsomal Stability: % remaining” value was “m12%”. Also, the IC50 in [7] and in [3] was 100 to 1000 nM in each case. The figures for the EC50 in series [4] and in [5] were 100 to 1000 nM and over 30000 nM, respectively.
